Reference: ChEMBL document CHEMBL6182944, “Substrate Specificity of the Organic Cation Transporters MATE1 and MATE2K and Functional Overlap with OCT1 and OCT2” (J Med Chem, 2025)

Tests used:
[1] = molecular target: T1, MATE2-K (Homo sapiens, UniProt Q86VL8); test: in vitro
T1 sequence (Q86VL8 whole entry): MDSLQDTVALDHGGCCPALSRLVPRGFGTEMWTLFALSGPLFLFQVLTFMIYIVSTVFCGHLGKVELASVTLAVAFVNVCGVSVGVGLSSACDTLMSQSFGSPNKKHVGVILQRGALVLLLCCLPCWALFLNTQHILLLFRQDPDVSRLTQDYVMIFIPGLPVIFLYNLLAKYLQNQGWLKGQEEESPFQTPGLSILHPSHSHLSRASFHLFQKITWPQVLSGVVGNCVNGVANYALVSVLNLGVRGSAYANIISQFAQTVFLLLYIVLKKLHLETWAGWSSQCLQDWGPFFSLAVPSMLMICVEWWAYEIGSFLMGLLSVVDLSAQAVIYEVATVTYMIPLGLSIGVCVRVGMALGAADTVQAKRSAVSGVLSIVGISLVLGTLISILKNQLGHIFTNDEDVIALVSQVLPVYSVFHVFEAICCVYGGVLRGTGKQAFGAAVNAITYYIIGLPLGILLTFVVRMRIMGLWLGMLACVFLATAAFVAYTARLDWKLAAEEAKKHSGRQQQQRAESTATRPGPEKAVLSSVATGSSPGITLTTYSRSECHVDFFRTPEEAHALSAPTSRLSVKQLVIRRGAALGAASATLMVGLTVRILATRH

[2] = molecular target: T2, MATE1 (Homo sapiens, UniProt Q96FL8); test: in vitro
T2 sequence (Q96FL8 whole entry): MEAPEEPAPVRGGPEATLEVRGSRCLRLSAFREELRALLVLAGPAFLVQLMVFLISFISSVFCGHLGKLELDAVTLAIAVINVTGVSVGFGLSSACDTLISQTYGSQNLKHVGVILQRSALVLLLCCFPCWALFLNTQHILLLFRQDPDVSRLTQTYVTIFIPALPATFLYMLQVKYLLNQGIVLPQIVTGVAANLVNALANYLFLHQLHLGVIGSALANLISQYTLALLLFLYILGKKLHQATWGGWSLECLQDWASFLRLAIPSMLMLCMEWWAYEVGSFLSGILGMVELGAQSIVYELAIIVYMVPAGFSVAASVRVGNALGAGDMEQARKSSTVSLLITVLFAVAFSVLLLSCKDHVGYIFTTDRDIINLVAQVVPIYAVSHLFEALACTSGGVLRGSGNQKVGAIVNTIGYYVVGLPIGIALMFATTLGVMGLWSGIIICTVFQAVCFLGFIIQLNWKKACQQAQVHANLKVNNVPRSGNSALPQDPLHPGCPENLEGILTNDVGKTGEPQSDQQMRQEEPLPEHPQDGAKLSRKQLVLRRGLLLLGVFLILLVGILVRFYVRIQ

[3] = HEK293 cells expressing MATE2-K

Structure (SMILES)	uptake ratio at 1 min, 2.5 µM [1, 3]	uptake ratio at 1 min, 2.5 µM ([2]; HEK293 cells expressing MATE1)	uptake ratio at 1 min, 2.5 µM ([1]; hek293)	uptake ratio at 1 min, 2.5 µM ([2]; hek293)
COc1ccc(CCN)cc1	< 2	< 2		
COc1cc(CCN)ccc1O	< 2	> 2		
OC(c1ccccc1)(c1ccccc1)C12CC[N+](CCOCc3ccccc3)(CC1)CC2	< 2	> 2		
NCCCCCN	< 2	< 2		
O=C(O[C@H]1C[N+]2(CCCOc3ccccc3)CCC1CC2)C(O)(c1cccs1)c1cccs1	< 2	> 2		
COc1cc2c(cc1OC)-c1cc3ccc4c(c3c[n+]1CC2)OCO4	> 2	> 2		
C[C@@H]1O[C@@]2(CS1)CN1CCC2CC1	< 2	< 2		
COC(=O)[C@@H]1[C@H]2CC[C@@H](C[C@@H]1O)N2C	< 2	< 2		
CNS(=O)(=O)CCc1ccc2[nH]cc(C3CCN(C)CC3)c2c1	> 2	> 2		
CC[C@@H](C(N)=O)N1CCCC1=O	< 2	< 2		
CNC(C)Cc1ccc(OC)cc1 (configuration not stated)	< 2	< 2		
NCCc1cccc(O)c1	< 2	> 2		
COc1ccc(CCN)cc1O	< 2	> 2		
CN1CCC[C@@H]1Cc1c[nH]c2ccc(CCS(=O)(=O)c3ccccc3)cc12	< 2	< 2		
C[N+]1(CCC(C(N)=O)(c2ccccc2)c2ccccc2)CCCCC1	< 2	> 2		
COc1ccc2[nH]c3c(c2c1)CCNC3	< 2	< 2		
CCC(Cc1ccc2c(c1)OCO2)NC (configuration not stated)	< 2	< 2		
CNCCc1c[nH]c2ccc(O)cc12	> 2	> 2		
C1CCN2C[C@H]3C[C@H](CN4CCCC[C@@H]34)[C@H]2C1	> 2	> 2		
N=C(N)NCCC[C@H](NC(=O)c1ccc2ccccc2c1O)C(=O)N1CCC[C@H]1C(N)=O	< 2	> 2		
CN(C)C(=N)NCCC[C@H](N)C(=O)O	< 2	< 2		
CNCCc1ccccc1	< 2	< 2		
CNCCc1ccc(O)cc1	< 2	> 2		
Cc1cc(O)cc(C)c1OCC(C)N (configuration not stated)	< 2	< 2		
CNCc1ccc(CSCCN/C(=C/[N+](=O)[O-])NC)o1	> 2	> 2		
Cc1ncc(C[n+]2cccc(CCO)c2C)c(N)n1	> 2	> 2		
COc1ccc2[nH]cc(C[C@H](N)C(=O)O)c2c1	< 2	< 2		

Structure (SMILES)	uptake ratio at 1 min, 2.5 µM [1, 3]	uptake ratio at 1 min, 2.5 µM ([2]; HEK293 cells expressing MATE1)	uptake ratio at 1 min, 2.5 µM ([1]; hek293)	uptake ratio at 1 min, 2.5 µM ([2]; hek293)
CNCC(O)c1ccc(O)cc1 (configuration not stated)	< 2	> 2		
C[N+]12CCC(CC1)C(OC(=O)C(O)(c1ccccc1)c1ccccc1)C2 (configuration not stated)	< 2	> 2		
C[C@H](NCCc1ccc(O)cc1)[C@H](O)c1ccc(O)cc1			> 2	> 2
C[C@@H]1Cc2c(Cl)cc(C(=O)N[C@@H](Cc3ccccc3)C(=O)O)c(O)c2C(=O)O1 [3R14S-OCHRATOXIN A]	< 2	> 2		
N=C(N)NC(=N)Nc1ccc(Cl)cc1 [4-CHLOROPHENYLBIGUANIDE]	> 2	> 2		
CCCC(=O)Nc1ccc(OCC(O)CNC(C)C)c(C(C)=O)c1 (configuration not stated) [ACEBUTOLOL]			> 2	> 2
N=C(N)NCCCCN [AGMATINE]	< 2	< 2		
C=CCN1CCCC1CNC(=O)c1cc2[nH]nnc2cc1OC (configuration not stated) [ALIZAPRIDE]	> 2	> 2		
CN(C)CCc1c[nH]c2ccc(CS(=O)(=O)N3CCCC3)cc12 [ALMOTRIPTAN]	> 2	> 2		
Nc1ccncc1N [AMIFAMPRIDINE]	> 2	> 2		
NC(N)=NCCCCN=C(N)N [ARCAINE]	> 2	> 2		
O=C1CCc2ccc(OCCCCN3CCN(c4cccc(Cl)c4Cl)CC3)cc2N1 [ARIPIPRAZOLE]			< 2	< 2
CC(=O)c1cc2cccc(OCC(O)CNC(C)C)c2o1 (configuration not stated) [BEFUNOLOL]	< 2	< 2		
CNCCc1ccccn1 [BETAHISTINE]			< 2	< 2
CC(C)NCC(O)COc1ccc(CCOCC2CC2)cc1 (configuration not stated) [BETAXOLOL]			< 2	< 2
CCCCNC(=N)NC(=N)N [BUFORMIN]			> 2	> 2
O=C1CC2(CCCC2)CC(=O)N1CCCCN1CCN(c2ncccn2)CC1 [BUSPIRONE]			< 2	> 2
CCCC[N+]1(C)[C@@H]2C[C@@H](OC(=O)[C@H](CO)c3ccccc3)C[C@H]1[C@@H]1O[C@@H]12 (some centres not stated) [BUTYLSCOPOLAMINE]	< 2	> 2		
CCN(CC)C(=O)Nc1ccc(OCC(O)CNC(C)(C)C)c(C(C)=O)c1 (configuration not stated) [CELIPROLOL]	> 2	> 2		
CN(C)CCCN1c2ccccc2Sc2ccc(Cl)cc21 [CHLORPROMAZINE]			< 2	< 2
C[N+](C)(C)CCO [CHOLINE]			< 2	< 2
CN/C(=N/CCSCc1nc[nH]c1C)NC#N [CIMETIDINE]			> 2	> 2
CC(C)(C)NCC(O)c1ccc(O)c(O)c1 (configuration not stated) [COLTEROL]	> 2	> 2		
CN(CC(=O)O)C(=N)N [CREATINE]	< 2	< 2		
CC1(C)N=C(N)N=C(N)N1c1ccc(Cl)cc1 [CYCLOGUANIL]	> 2	> 2		
O=c1cccc2n1C[C@@H]1CNC[C@H]2C1 [CYTISINICLINE]			< 2	> 2
NC(N)=Nc1nc(CSCCC(N)=NS(N)(=O)=O)cs1 [FAMOTIDINE]			> 2	
